Reference: patent US5112515A, “Phenothrin shampoo” (Euroceltique, S.A., priority 1990, dated 1992)

Tested on: Bacteria, moulds and yeasts
Assay: Efficacy of Antimicrobial Preservatives in Pharmaceutical Products (British Pharmacopoeia 1988), overall outcome
Assay type: cell-based
Conditions: specification of British Pharmacopoeia 1988
From the text: The test procedure conformed with the specifications described in the 1988 British Pharmacopoeia--"Efficacy of Antimicrobial Preservatives in Pharmaceutical Products".
Aliquots of microbial suspensions of Pseudomonas aeruoinosa NC18 8626, Stahylococcus aureus NCTC 10788, Candida albicans NCPF 3179, and Asperoillus niger IMI 149007 were introduced into separate containers of the composition of Example 1 to achieve a final concentration of approximately 1×10^6 cfu/ml. The same volume of inoculum was simultaneously introduced into separate equivalent quantities of 0.1% peptone water to be used as controls. The inoculated product was stored in the dark at 20°-25° C.
1 ml aliquots of the inoculated product were removed at 0, 6, 24 and 48 hours, 7, 14 and 28 days. Each was added to 9 ml of 0.1% peptone water containing the following as preservative inactivating agents:
A topical preparation is considered to be effectively preserved if the following criteria are met:
Bacteria--the number of organisms recovered per ml is reduced by a factor of not less than 10^3 within 48 hours of challenge and no organism is recovered from 1 ml at 7 days and thereafter;
Moulds and Yeasts--the number of organisms recovered per ml is reduced by a factor of not less than 10^2 within 14 days of challenge and there is no increase thereafter.

SMILES: O=[N+]([O-])C(Br)(CO)CO [bronopol, 2-bromo-2-nitropropane-1,3,-diol]
- Antimicrobial protection / antimicrobial properties of the shampoo: good antimicrobial protection
